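Tested at 5 concentrations; 48 h exposure; 96-well plates; endpoints linearly interpolated, else capped at highest concentration. Abbreviation: GI50, concentration required for 50% inhibition of growth.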 Calls of active or inactive are those of the source. Rule as the data show it: active = GI50 up to about 1.1 µM and inactive = higher.
How the values were obtained:
Assay in all cases: NCI-60 cell line screen, 48 h
UACC-62 = tested on: UACC-62
NCI-H23 = tested on: NCI-H23
OVCAR-3 = tested on: OVCAR-3
LOX IMVI = tested on: LOX IMVI
SK-OV-3 = tested on: SK-OV-3
SK-MEL-28 = tested on: SK-MEL-28
SNB-75 = tested on: SNB-75
NCI-H522 = tested on: NCI-H522
HOP-92 = tested on: HOP-92
ACHN = tested on: ACHN
MOLT-4 = tested on: MOLT-4
HCC 2998 = tested on: HCC 2998
HT-29 = tested on: HT-29
HCT-116 = tested on: HCT-116
Malme-3M = tested on: Malme-3M
A498 = tested on: A498
OVCAR-4 = tested on: OVCAR-4
NCI-H226 = tested on: NCI-H226
HOP-62 = tested on: HOP-62
MDA-MB-231 = tested on: MDA-MB-231

Measured: GI50

COCCOCOC(C)(C)[C@H](CCO)O[Si](c1ccccc1)(c1ccccc1)C(C)(C)C
inactive: UACC-62 12 µM | NCI-H23 15.7 µM | OVCAR-3 10.2 µM | LOX IMVI 8.36 µM | SK-OV-3 12.5 µM | SK-MEL-28 14.9 µM | SNB-75 8.11 µM | NCI-H522 4.57 µM | HOP-92 10.6 µM | ACHN 5.68 µM | MOLT-4 3.54 µM | HCC 2998 4.68 µM | HT-29 8.61 µM | HCT-116 3.67 µM | Malme-3M 14.3 µM | A498 16.7 µM

O=C(NN1C(=O)CS(=O)(=O)C1c1ccc(C(F)(F)F)cc1)c1ccncc1 (stereo not drawn)
inactive: OVCAR-4 > 100 µM | NCI-H23 > 100 µM | NCI-H226 > 100 µM | LOX IMVI > 100 µM | SK-OV-3 > 100 µM | SK-MEL-28 > 100 µM | SNB-75 > 100 µM | NCI-H522 > 100 µM | HOP-92 > 100 µM | ACHN > 100 µM | MOLT-4 > 100 µM | HOP-62 > 100 µM | HCC 2998 > 100 µM | HT-29 > 100 µM | HCT-116 > 100 µM | Malme-3M > 100 µM | A498 > 100 µM

Cc1oc2nc(N(C)C)n3c(C)nnc3c2c1C
inactive: OVCAR-4 > 100 µM | UACC-62 > 100 µM | NCI-H23 > 100 µM | NCI-H226 > 100 µM | LOX IMVI > 100 µM | SK-OV-3 > 100 µM | SK-MEL-28 > 100 µM | SNB-75 > 100 µM | NCI-H522 > 100 µM | MDA-MB-231 > 100 µM | HOP-92 > 100 µM | ACHN > 100 µM | MOLT-4 > 100 µM | HCC 2998 > 100 µM | HT-29 > 100 µM | HCT-116 > 100 µM | A498 > 100 µM

CN(C)C(CN)CC1=C(CC(CN)N(C)C)CCC1 (stereo not drawn)
inactive: OVCAR-4 > 100 µM | UACC-62 > 100 µM | NCI-H23 > 100 µM | OVCAR-3 > 100 µM | NCI-H226 > 100 µM | LOX IMVI > 100 µM | SK-OV-3 > 100 µM | SK-MEL-28 > 100 µM | SNB-75 > 100 µM | NCI-H522 > 100 µM | HOP-92 > 100 µM | MOLT-4 > 100 µM | HOP-62 > 100 µM | HCC 2998 > 100 µM | HT-29 > 100 µM | HCT-116 > 100 µM | Malme-3M > 100 µM | A498 > 100 µM

O=C(CC(=O)C1CCOC1=O)C(=O)Nc1ccc(Cl)cc1Cl (stereo not drawn)
inactive: OVCAR-4 > 100 µM | UACC-62 > 100 µM | NCI-H23 > 100 µM | OVCAR-3 > 100 µM | NCI-H226 > 100 µM | LOX IMVI > 100 µM | SK-OV-3 > 100 µM | SK-MEL-28 > 100 µM | SNB-75 53.1 µM | NCI-H522 > 100 µM | HOP-92 > 100 µM | ACHN > 100 µM | HOP-62 > 100 µM | HCC 2998 > 100 µM | HT-29 > 100 µM | HCT-116 > 100 µM | Malme-3M > 100 µM | A498 > 100 µM

CN1CCN(Cn2nc(COc3ccc(Cl)cc3)n(/N=C/c3ccc(-c4ccc(Cl)cc4Cl)o3)c2=S)CC1
inactive: OVCAR-4 3.05 µM | OVCAR-3 14.1 µM | NCI-H226 19.6 µM | LOX IMVI 5.57 µM | SK-OV-3 15.7 µM | SK-MEL-28 13.9 µM | NCI-H522 3.72 µM | MDA-MB-231 7 µM | HOP-92 8.47 µM | ACHN 19.7 µM | MOLT-4 16.7 µM | HOP-62 5 µM | HCC 2998 3.18 µM | HT-29 3.7 µM | HCT-116 13.4 µM | A498 18.3 µM

CC1(C)N/C(=C\C=O)C(C)(C)N1O
inactive: OVCAR-4 > 100 µM | UACC-62 > 100 µM | NCI-H23 > 100 µM | OVCAR-3 > 100 µM | NCI-H226 > 100 µM | LOX IMVI > 100 µM | SK-OV-3 > 100 µM | SK-MEL-28 > 100 µM | MDA-MB-231 > 100 µM | HOP-92 > 100 µM | ACHN > 100 µM | MOLT-4 > 100 µM | HOP-62 > 100 µM | HCC 2998 > 100 µM | HT-29 > 100 µM | HCT-116 > 100 µM | Malme-3M > 100 µM

CN1C(=O)NC(=O)/C(=C\Nc2ncccn2)C1=O
inactive: OVCAR-4 > 100 µM | UACC-62 > 100 µM | NCI-H23 > 100 µM | OVCAR-3 > 100 µM | NCI-H226 > 100 µM | LOX IMVI > 100 µM | SK-OV-3 > 100 µM | SK-MEL-28 > 100 µM | SNB-75 > 100 µM | NCI-H522 > 100 µM | MDA-MB-231 > 100 µM | HOP-92 > 100 µM | ACHN > 100 µM | MOLT-4 > 100 µM | HOP-62 > 100 µM | HT-29 > 100 µM | HCT-116 > 100 µM | Malme-3M > 100 µM | A498 > 100 µM

O=C(OC(=O)n1ccc2ccccc21)n1ccc2ccccc21
inactive: OVCAR-4 > 100 µM | UACC-62 > 100 µM | NCI-H23 > 100 µM | OVCAR-3 > 100 µM | NCI-H226 > 100 µM | LOX IMVI > 100 µM | SK-OV-3 > 100 µM | SK-MEL-28 > 100 µM | SNB-75 84.1 µM | HOP-92 > 100 µM | MOLT-4 > 100 µM | HOP-62 > 100 µM | HCC 2998 > 100 µM | HT-29 > 100 µM | HCT-116 > 100 µM | A498 > 100 µM

COc1cc2c(cc1OC)C(Cc1c3ccccc3cc3ccccc13)N(C)CC2 (stereo not drawn)
inactive: OVCAR-4 30.7 µM | UACC-62 17.8 µM | NCI-H23 29 µM | OVCAR-3 27.7 µM | NCI-H226 24.1 µM | LOX IMVI 18 µM | SK-OV-3 22.4 µM | SK-MEL-28 20.2 µM | SNB-75 14.4 µM | NCI-H522 24.4 µM | HOP-92 11.4 µM | MOLT-4 16 µM | HOP-62 21.4 µM | HT-29 13.5 µM | HCT-116 14.9 µM | A498 17.4 µM

CC1(C)CCc2ccc(OCCC(=O)O)cc2O1
inactive: OVCAR-4 > 100 µM | UACC-62 > 100 µM | NCI-H23 > 100 µM | OVCAR-3 > 100 µM | NCI-H226 > 100 µM | LOX IMVI > 100 µM | SK-OV-3 > 100 µM | SNB-75 83.4 µM | NCI-H522 > 100 µM | HOP-92 > 100 µM | ACHN > 100 µM | MOLT-4 > 100 µM | HOP-62 > 100 µM | HT-29 > 100 µM | HCT-116 > 100 µM | Malme-3M > 100 µM

CCOC(=O)/C=C(/C)Nc1nc2c(c(C(=O)OC)c1C#N)CCCC2
inactive: OVCAR-4 44.7 µM | UACC-62 > 100 µM | NCI-H23 > 100 µM | NCI-H226 > 100 µM | LOX IMVI > 100 µM | SK-OV-3 > 100 µM | SK-MEL-28 > 100 µM | NCI-H522 > 100 µM | MDA-MB-231 > 100 µM | HOP-92 > 100 µM | ACHN > 100 µM | MOLT-4 63 µM | HOP-62 > 100 µM | HCC 2998 > 100 µM | HT-29 > 100 µM | HCT-116 > 100 µM | Malme-3M > 100 µM | A498 > 100 µM

CCN(CC)CCN1C(=O)C(=O)N(c2cccc3ccccc23)C1=O
inactive: OVCAR-4 > 10 µM | UACC-62 > 10 µM | NCI-H23 > 10 µM | OVCAR-3 > 10 µM | NCI-H226 > 10 µM | LOX IMVI > 10 µM | SK-OV-3 > 10 µM | SK-MEL-28 > 10 µM | SNB-75 > 10 µM | NCI-H522 > 10 µM | MDA-MB-231 > 10 µM | ACHN > 10 µM | MOLT-4 > 10 µM | HOP-62 > 10 µM | HCC 2998 > 10 µM | HT-29 > 10 µM | HCT-116 > 10 µM | Malme-3M > 10 µM | A498 > 10 µM

CCOc1cc(C(=O)O)c2c(ccc3ccc(OC)c(OC)c32)c1OC
inactive: OVCAR-4 > 100 µM | UACC-62 > 100 µM | NCI-H23 > 100 µM | OVCAR-3 > 100 µM | NCI-H226 > 100 µM | LOX IMVI > 100 µM | SK-OV-3 > 100 µM | SK-MEL-28 > 100 µM | SNB-75 > 100 µM | NCI-H522 > 100 µM | MDA-MB-231 > 100 µM | HOP-92 > 100 µM | ACHN > 100 µM | MOLT-4 > 100 µM | HOP-62 > 100 µM | HCC 2998 > 100 µM | HT-29 > 100 µM | HCT-116 > 100 µM | Malme-3M > 100 µM

CCCCCCCCCCCCCCCCOCC(CC(F)(F)P(=O)(OCC)OCC)OC(C)=O (stereo not drawn)
inactive: OVCAR-4 14.9 µM | UACC-62 15.3 µM | NCI-H23 16.9 µM | OVCAR-3 17.5 µM | NCI-H226 14.4 µM | SK-OV-3 19.6 µM | SK-MEL-28 17.8 µM | SNB-75 17.5 µM | NCI-H522 13.1 µM | MDA-MB-231 14.9 µM | HOP-92 10.3 µM | ACHN 13.9 µM | MOLT-4 28.1 µM | HCC 2998 8.69 µM | HT-29 14.9 µM | HCT-116 3.17 µM | Malme-3M 10.6 µM | A498 12.5 µM

CCOC(=O)/C(O)=C1\C(=O)N(C)C(=O)C1c1ccc(OC)c(OC)c1 (stereo not drawn)
inactive: OVCAR-4 > 100 µM | UACC-62 > 100 µM | NCI-H23 > 100 µM | OVCAR-3 > 100 µM | NCI-H226 > 100 µM | LOX IMVI > 100 µM | SK-OV-3 > 100 µM | SK-MEL-28 > 100 µM | SNB-75 > 100 µM | NCI-H522 > 100 µM | HOP-92 > 100 µM | MOLT-4 > 100 µM | HOP-62 > 100 µM | HCC 2998 > 100 µM | HT-29 > 100 µM | HCT-116 > 100 µM | Malme-3M > 100 µM | A498 > 100 µM

— ChEMBL document CHEMBL1201862, “PubChem BioAssay data set” (2004)
